According to paper PMC2922490 (Bioorganic & medicinal chemistry letters, 2010):

Tests used:
[1] = type: in vitro ADME; conditions: rat microsomes, incubation period of 60 min
[2] = type: in vitro ADME; conditions: rat protein binding
[3] = type: in vitro ADME; conditions: human protein binding
[4] = target: hmGlu4 (Homo sapiens, UniProt Q14833)
[5] = type: in vitro ADME; conditions: human microsomes, incubation period of 60 min

hmGlu4, sequence (Q14833 33-912): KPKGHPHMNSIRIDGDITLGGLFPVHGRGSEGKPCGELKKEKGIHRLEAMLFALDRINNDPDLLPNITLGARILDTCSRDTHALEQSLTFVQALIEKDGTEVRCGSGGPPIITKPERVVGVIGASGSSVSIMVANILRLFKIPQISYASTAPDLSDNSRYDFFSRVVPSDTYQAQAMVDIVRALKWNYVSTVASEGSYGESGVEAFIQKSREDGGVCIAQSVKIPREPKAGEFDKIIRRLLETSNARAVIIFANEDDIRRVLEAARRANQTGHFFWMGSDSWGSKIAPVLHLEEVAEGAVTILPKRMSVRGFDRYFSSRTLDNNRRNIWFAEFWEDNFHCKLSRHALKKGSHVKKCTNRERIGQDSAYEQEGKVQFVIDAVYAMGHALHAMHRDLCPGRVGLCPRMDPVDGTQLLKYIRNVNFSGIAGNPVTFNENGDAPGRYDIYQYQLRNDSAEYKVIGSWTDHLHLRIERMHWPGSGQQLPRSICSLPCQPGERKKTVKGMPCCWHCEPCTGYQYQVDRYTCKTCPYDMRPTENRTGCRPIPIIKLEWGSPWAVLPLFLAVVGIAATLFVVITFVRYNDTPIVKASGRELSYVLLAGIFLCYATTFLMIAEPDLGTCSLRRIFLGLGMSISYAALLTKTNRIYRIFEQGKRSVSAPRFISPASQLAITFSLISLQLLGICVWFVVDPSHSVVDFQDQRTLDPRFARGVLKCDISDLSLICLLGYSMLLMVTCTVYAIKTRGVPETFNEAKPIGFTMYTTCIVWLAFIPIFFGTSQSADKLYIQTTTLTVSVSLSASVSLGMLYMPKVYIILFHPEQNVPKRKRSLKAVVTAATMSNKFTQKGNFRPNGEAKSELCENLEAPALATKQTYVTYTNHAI

SMILES: Cc1cc(C)c(NS(=O)(=O)c2ccc(NC(=O)c3ccco3)cc2)c(C)c1 [Compound 4]
- RLM (% remaining) [1]: 93.3 % remaining
- PPB (r) (% free) [2]: 8.2 % free
- PPB (h) (% free) [3]: 2.2 % free

SMILES: Cc1cc(C)c(NS(=O)(=O)c2ccc(NC(=O)c3ccccn3)cc2)c(C)c1 [Compound 5]
- RLM (% remaining) [1]: 25.8 % remaining
- PPB (r) (% free) [2]: 0.3 % free
- increase in potency relative to 4 ([4]; 2-furyl amide of 4 changed to 2-pyridyl amide): 30 fold
- receptor activation in the absence of glutamate ([4]; mGlu4/Gqi5 CHO cells, absence of an EC20 concentration of glutamate): does not elicit receptor activation
- PPB (h) (% free) [3]: 0.1 % free

SMILES: O=C(Nc1ccc(S(=O)(=O)Nc2ccccc2Cl)cc1)c1ccccn1 [Compound 8b]
- HLM (% remaining) [5]: 0.02 % remaining
- RLM (% remaining) [1]: 0.02 % remaining
- PPB (r) (% free) [2]: 0.3 % free
- PPB (h) (% free) [3]: 0.1 % free

SMILES: O=C(Nc1ccc(S(=O)(=O)Nc2ccccc2Cl)cc1)c1nccs1 [Compound 9d]
- HLM (% remaining) [5]: 0.84 % remaining
- RLM (% remaining) [1]: 1.2 % remaining
- PPB (r) (% free) [2]: 0.1 % free
- PPB (h) (% free) [3]: 0.1 % free

SMILES: CN(c1ccccc1Cl)S(=O)(=O)c1ccc(NC(=O)c2ccncn2)cc1 [Compound 9f]
- HLM (% remaining) [5]: 2.5 % remaining
- RLM (% remaining) [1]: 3.3 % remaining
- PPB (r) (% free) [2]: 2.7 % free
- PPB (h) (% free) [3]: 1.7 % free

SMILES: CN(c1ccccc1Cl)S(=O)(=O)c1ccc(NC(=O)c2nccs2)cc1 [Compound 9g]
- HLM (% remaining) [5]: 0.1 % remaining
- RLM (% remaining) [1]: 0.08 % remaining
- PPB (r) (% free) [2]: 37 % free
- PPB (h) (% free) [3]: 0.5 % free

SMILES: COc1ccccc1NS(=O)(=O)c1ccc(NC(=O)c2ccccn2)cc1OC [Compound 10]
- HLM (% remaining) [5]: 1.3 % remaining
- RLM (% remaining) [1]: 0.05 % remaining
- PPB (r) (% free) [2]: 12.7 % free
- PPB (h) (% free) [3]: 0.3 % free

SMILES: O=C(Nc1ccc(S(=O)(=O)Nc2ccccc2Cl)c(Cl)c1)c1ccccn1 [Compound 11]
- HLM (% remaining) [5]: 0.63 % remaining
- RLM (% remaining) [1]: 0.02 % remaining

SMILES: O=C(Nc1ccc(Cl)c(S(=O)(=O)Nc2ccccc2Cl)c1)c1ccccn1 [Compound 13]
- HLM (% remaining) [5]: 11.9 % remaining
- RLM (% remaining) [1]: 0.05 % remaining
- loss of potency ([4]; relative to the parent compound (13 vs 11; N-Me vs NH sulfonamides)): 36 fold
